These results are taken from patent US20180354962A1, “[{[2,3-Dihydro-1H-inden-1-yl]amino}-2H,3H-furo[3,2-b]pyridin-3-yl]acetic acids, pharmaceutical compositions and uses thereof” (Boehringer Ingelheim International GmbH, priority 2015, published 2018).

As a reminder, the IC50 is the concentration at which inhibition is half-maximal. A high value points to a need for much substance. As usually defined, the EC50 is the midpoint of the concentration-response curve. A higher EC50 goes with lower potency in that assay. One may read the solubility as how much of the substance goes into solution per volume.

SMILES strings stand for the structures. Values after ≈ are worked out from the molar mass of the structure shown. A value given as a limit tells only on which side of the number the result lay.

Series [1] has as its target T1, cytochrome P450 2C9-isoenzyme (Homo sapiens, UniProt P11712).
T1 construct: is assayed at 37° C. with human liver microsomes; from tissue; host or cells: human liver microsomes
In words: Inhibition of CYP-2C9 (diclofenac hydroxylation, human liver microsomes). It is filed as in vitro ADME. As to conditions: human liver microsomes 0.1 mg/mL, diclofenac 10 μM, 37° C. How it is done: All assays are carried out on a robotic system in 96 well plates. The final incubation volume contains TRIS buffer (0.1 M), MgCl2 (5 mM), human liver microsomes (0.1 mg/mL), diclofenac (10 μM) and the test compound at five different concentrations or no compound (high control) in duplicate (e.g. highest concentration 10-50 μM with subsequent serial 1:4 dilutions). Following a short preincubation period, reactions are started with the cofactor (NADPH, 1 mM) and stopped by cooling the incubation down to 8° C. and subsequently by addition of one volume of acetonitrile. An internal standard solution—the stable isotope 13C6-hydroxydiclofenac—is added after quenching of incubations. Peak area analyte (=metabolite formed) and internal standard is determined by LC-MS/MS. The resulting peak area ratio analyte to internal standard in these incubations is compared to a control activity containing no test compound. Within each of the assay runs, the IC50 of a positive control inhibitor (sulfaphenazole) is determined. Experimental IC50 values are calculated by least square regression according to the following equation: % control activity=(100% control activity/(1+(I/IC50)S)))−B with I=inhibitor concentration S=slope factor B=background activity (lower plateau of the inhibition curve) If the inhibition of the reaction is already >50% at the lowest concentration of the test compound, the IC50 is assigned “<lowest concentration tested” (usually <0.4 μM). If the inhibition of the reaction is still <50% at the highest concentration of the test compound, the IC50 is assigned “>highest concentration tested” (usually >50 μM).
A general note: Liver microsomes are a subcellular fraction often used to study metabolism.

The target of series [2] is T2, cytochrome P450 2C8-isoenzyme (Homo sapiens, UniProt P10632).
T2 construct: is assayed at 37° C. with human liver microsomes; from tissue; host or cells: human liver microsomes
T2 sequence (P10632 1-490): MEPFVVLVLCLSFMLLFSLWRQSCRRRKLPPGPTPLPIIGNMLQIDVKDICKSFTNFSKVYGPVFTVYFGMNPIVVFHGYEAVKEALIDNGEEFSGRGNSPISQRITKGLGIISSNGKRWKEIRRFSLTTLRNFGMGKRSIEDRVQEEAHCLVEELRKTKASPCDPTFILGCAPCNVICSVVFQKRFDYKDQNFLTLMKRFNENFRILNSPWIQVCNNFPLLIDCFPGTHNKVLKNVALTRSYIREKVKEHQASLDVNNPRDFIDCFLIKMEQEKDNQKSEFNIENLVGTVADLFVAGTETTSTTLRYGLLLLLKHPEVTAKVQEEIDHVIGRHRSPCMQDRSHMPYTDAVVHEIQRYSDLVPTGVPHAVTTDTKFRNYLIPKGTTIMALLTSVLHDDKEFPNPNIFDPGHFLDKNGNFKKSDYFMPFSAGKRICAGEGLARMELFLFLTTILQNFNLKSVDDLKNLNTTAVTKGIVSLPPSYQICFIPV
The series can be described thus: Inhibition of CYP-2C8 (amodiaquine deethylation, human liver microsomes). It is filed as in vitro ADME. The settings on record: human liver microsomes 0.05 mg/mL, amodiaquine 1 μM, 37° C. On the procedure:
All assays are carried out on a robotic system in 96 well plates. The final incubation volume contains TRIS buffer (0.1 M), MgCl2 (5 mM), human liver microsomes (0.05 mg/mL), amodiaquine (1 μM) and the test compound at five different concentrations or no compound (high control) in duplicate (e.g. highest concentration 10-50 μM with subsequent serial 1:4 dilutions). Following a short preincubation period, reactions are started with the cofactor (NADPH, 1 mM) and stopped by cooling the incubation down to 8° C. and subsequently by addition of one volume of acetonitrile. An internal standard solution—the stable isotope d5-desethylamodiaquine—is added after quenching of incubations. Peak area analyte (=metabolite formed) and internal standard is determined by LC-MS/MS. The resulting peak area ratio analyte to internal standard in these incubations is compared to a control activity containing no test compound. Within each of the assay runs, the IC50 of a positive control inhibitor (Montelukast) is determined. Experimental IC50 values are calculated by least square regression according to the following equation: % control activity=(100% control activity/(1+(I/IC50)S))−B with I=inhibitor concentration; S=slope factor; B=background activity (lower plateau of the inhibition curve) If the inhibition of the reaction is already >50% at the lowest concentration of the test compound, the IC50 is assigned “<lowest concentration tested” (usually <0.4 μM). If the inhibition of the reaction is still <50% at the highest concentration of the test compound, the IC50 is assigned “>highest concentration tested” (usually >50 μM).

The target of another series is human GPR40 receptor (Homo sapiens, UniProt O14842). In words: IP1 accumulation measurements using the IPOne assay system. It counts as cell-based. The settings on record: 1321N1 cells stably expressing human GPR40; 1 h stimulation at 37° C. How it is done:
IP1 accumulation measurements using the IPOne assay system—1321N1 cells stably expressing human GPR40 receptor (Euroscreen, Belgium) are seeded 24 h before the assay in white 384-well plates in culture medium containing 10% FCS, 1% Na-Pyruvate and 400 μg/mL G418. IP1 is assayed according to the manufacturer's description (Cisbio Bioassays, France). In brief, the assay is started by substitution of the culture medium by stimulation buffer (Hepes 10 mM, CaCl2 1 mM, MgCl2 0.5 mM, KCl 4.2 mM, NaCl 146 mM, glucose 5.5 mM and LiCl 50 mM, pH 7.4). Cells are stimulated for 1 h at 37° C., 5% CO2 by addition of the compounds that are diluted in stimulation buffer containing LiCl. Assays are stopped by adding HTRF-conjugates (IP1-d2 and Anti-IP1 cryptate Tb) and lysis buffer, provided by the manufacturer. After an incubation time of 1 h at room temperature plates are measured using an EnVision™, Perkin Elmer. The obtained fluorescence ratios at 665/615 […] are then used to calculate the pEC50 values using Assay Explorer 3.3 Software (Accelrys, Inc.) by interpolation using an IP1 reference curve and subsequent sigmoidal curve fitting allowing for a variable hill slope.

The nature of series [3]: Aqueous solubility from DMSO stock, LC-UV. It is filed as physicochemical. As to conditions: aqueous buffer, kinetic from dmso stock; buffer pH 2.2, 24 h shaking, 2.5% DMSO. On the procedure:
The aqueous solubility of the compounds of the invention is determined by comparing the amount dissolved in buffer to the amount in an acetonitrile/water (1/1) solution. Starting from a 10 mM DMSO stock solution aliquots are diluted with acetonitrile/water (1/1) or buffer, respectively. After 24 h of shaking, the solutions are filtrated and analyzed by LC-UV. The amount dissolved in buffer is compared to the amount in the acetonitrile solution. Solubility is usually being measured from 0.001 to 0.125 mg/mL at a DMSO concentration of 2.5%. If more than 90% of the compound is dissolved in buffer, the value is marked with “>”.

Chain of human GPR40 receptor (O14842 whole entry): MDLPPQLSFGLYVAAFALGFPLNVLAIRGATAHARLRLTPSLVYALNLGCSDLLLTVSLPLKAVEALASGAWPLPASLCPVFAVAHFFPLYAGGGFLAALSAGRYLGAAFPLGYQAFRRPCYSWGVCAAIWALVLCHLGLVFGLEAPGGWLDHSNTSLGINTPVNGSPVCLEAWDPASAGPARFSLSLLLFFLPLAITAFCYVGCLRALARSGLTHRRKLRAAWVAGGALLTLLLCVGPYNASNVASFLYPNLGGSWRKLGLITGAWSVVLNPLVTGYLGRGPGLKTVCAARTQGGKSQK
T1 sequence (P11712 whole entry): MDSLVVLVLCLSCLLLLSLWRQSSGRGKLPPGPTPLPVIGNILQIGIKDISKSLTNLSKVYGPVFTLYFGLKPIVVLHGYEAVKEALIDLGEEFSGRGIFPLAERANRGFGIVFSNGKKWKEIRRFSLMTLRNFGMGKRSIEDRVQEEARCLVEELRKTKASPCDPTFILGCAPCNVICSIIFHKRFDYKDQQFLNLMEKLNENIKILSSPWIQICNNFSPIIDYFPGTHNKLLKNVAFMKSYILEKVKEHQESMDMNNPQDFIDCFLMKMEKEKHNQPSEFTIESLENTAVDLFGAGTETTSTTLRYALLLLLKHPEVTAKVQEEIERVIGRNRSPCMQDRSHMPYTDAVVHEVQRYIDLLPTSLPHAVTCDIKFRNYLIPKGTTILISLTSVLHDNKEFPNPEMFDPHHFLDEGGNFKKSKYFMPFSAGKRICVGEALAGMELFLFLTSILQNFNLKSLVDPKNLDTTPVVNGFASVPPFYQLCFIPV

Turning to `Cc1cc(OCCC(C)(C)O)cc(C)c1-c1cccc2c1CC[C@H]2Oc1ccc2c(c1)OC[C@H]2CC(=O)O` [7 (WO 2013/144098), reference compound], the IC50 in series [1] was over 10 µM; in series [2] it was 5 µM.

As to `Cc1cc(OCCC(C)(C)O)cc(C)c1-c1ccc(F)c2c1CC[C@H]2Nc1cnc2c(c1)OCC2CC(=O)O` (stereo partly drawn) [Example 1, 2-(6-{[(1R)-7-Fluoro-4-[4-(3-hydroxy-3-methylbutoxy)-2,6-dimethylphenyl]-2,3-dihydro-1H-inden-1-yl]amino}-2H,3H-furo[3,2-b]pyridin-3-yl)acetic acid], the IC50 in series [1] was over 50 µM; in series [2] it was 17 µM. For the same compound, on human GPR40 receptor, the EC50 stood at 0.057 µM.

Regarding `Cc1cc(OCC(C)(C)O)cc(C)c1-c1cccc2c1CC[C@H]2Nc1cnc2c(c1)OCC2CC(=O)O` (stereo partly drawn) [Example 118, 2-(6-{[(1R)-4-[4-(2-Hydroxy-2-methylpropoxy)-2,6-dimethylphenyl]-2,3-dihydro-1H-inden-1-yl]amino}-2H,3H-furo[3,2-b]pyridin-3-yl)acetic acid], the concentration in solution in series [3] (solubility at 24 h) was 66 µg/mL (≈ 131 µM). The IC50 in series [1] and in series [2] was over 50 µM each time. The compound further registered an EC50 on human GPR40 receptor of 0.158 µM.

In series [3], `Cc1cc(OC2CCOCC2)cc(C)c1-c1cccc2c1CC[C@H]2Nc1cnc2c(c1)OCC2CC(=O)O` (stereo partly drawn) [Example 119, 2-(6-{[(1R)-4-[2,6-Dimethyl-4-(oxan-4-yloxy)phenyl]-2,3-dihydro-1H-inden-1-yl]amino}-2H,3H-furo[3,2-b]pyridin-3-yl)acetic acid] registered a solubility at 24 h of 16 µg/mL (≈ 31.1 µM). For the same compound, the IC50 was over 50 µM in series [1] and 41 µM in series [2]. This compound also came in with an EC50 at human GPR40 receptor of 0.09 µM.

For the compound `Cc1cc(-c2ccn(C)c(=O)c2)cc(C)c1-c1cccc2c1CC[C@H]2Nc1cnc2c(c1)OCC2CC(=O)O` (stereo partly drawn) [Example 120, 2-(6-{[(1R)-4-[2,6-Dimethyl-4-(1-methyl-2-oxo-1,2-dihydropyridin-4-yl)phenyl]-2,3-dihydro-1H-inden-1-yl]amino}-2H,3H-furo[3,2-b]pyridin-3-yl)acetic acid], the solubility at 24 h in series [3] worked out at 29 µg/mL (≈ 55.6 µM). The IC50 is over 50 µM in series [1] and 12 µM in series [2]. This compound also had an EC50 on human GPR40 receptor of 0.052 µM.

On to `Cc1cc(-c2ccc(=O)n(C)c2)cc(C)c1-c1cccc2c1CC[C@H]2Nc1cnc2c(c1)OCC2CC(=O)O` (stereo partly drawn) [Example 121, 2-(6-{[(1R)-4-[2,6-Dimethyl-4-(1-methyl-6-oxo-1,6-dihydropyridin-3-yl)phenyl]-2,3-dihydro-1H-inden-1-yl]amino}-2H,3H-furo[3,2-b]pyridin-3-yl)acetic acid], for which the solubility at 24 h in series [3] turned out to be 51 µg/mL (≈ 97.8 µM). For the same compound, the IC50 in series [1] was over 50 µM; in series [2] it was 29 µM. Besides, a half-maximal effect on human GPR40 receptor (EC50) was put at 0.061 µM.

In series [3], `Cc1cc(-c2nnn(CC(C)(C)O)n2)cc(C)c1-c1cccc2c1CC[C@H]2Nc1cnc2c(c1)OCC2CC(=O)O` (stereo partly drawn) [Example 122, 2-(6-{[(1R)-4-{4-[2-(2-Hydroxy-2-methylpropyl)-2H-1,2,3,4-tetrazol-5-yl]-2,6-dimethylphenyl}-2,3-dihydro-1H-inden-1-yl]amino}-2H,3H-furo[3,2-b]pyridin-3-yl)acetic acid] showed a solubility at 24 h of 45 µg/mL (≈ 81.1 µM). For the same compound, the IC50 in series [1] was over 50 µM; in series [2], 32 µM. On human GPR40 receptor, this compound returned an EC50 of 0.024 µM.

On to `Cc1cc(OCC(C)(C)C#N)cc(C)c1-c1cccc2c1CC[C@H]2Nc1cnc2c(c1)OCC2CC(=O)O` (stereo partly drawn) [Example 123, 2-(6-{[(1R)-4-[4-(2-Cyano-2,2-dimethylethoxy)-2,6-dimethylphenyl]-2,3-dihydro-1H-inden-1-yl]amino}-2H,3H-furo[3,2-b]pyridin-3-yl)acetic acid], for which the solubility at 24 h in series [3] was under 1 µg/mL. Besides, the IC50 in series [1] came out at 28 µM; in series [2], 9 µM. The EC50 on human GPR40 receptor is 0.153 µM.

Consider `CCc1cccc(CC)c1-c1cccc2c1CC[C@H]2Nc1cnc2c(c1)OCC2CC(=O)O` (stereo partly drawn) [Example 124, 2-(6-{[(1R)-4-(2,6-Diethylphenyl)-2,3-dihydro-1H-inden-1-yl]amino}-2H,3H-furo[3,2-b]pyridin-3-yl)acetic acid], for which the solubility at 24 h in series [3] came to 6 µg/mL (≈ 13.6 µM). In addition, the values for the half-inhibitory concentration (IC50) in series [1] and in series [2] were 49 µM and 9 µM, respectively. The compound further yielded an EC50 on human GPR40 receptor of 0.075 µM.

In turn, `O=C(O)CC1COc2cc(N[C@@H]3CCc4c(-c5ccccc5C(F)(F)F)cccc43)cnc21` (stereo partly drawn) [Example 125, 2-(6-{[(1R)-4-[2-(Trifluoromethyl)phenyl]-2,3-dihydro-1H-inden-1-yl]amino}-2H,3H-furo[3,2-b]pyridin-3-yl)acetic acid] registered a solubility at 24 h in series [3] of 22 µg/mL (≈ 48.4 µM). Besides, the IC50 was 47 µM in series [1] and 21 µM in series [2]. At human GPR40 receptor, this compound displayed an EC50 of 0.693 µM.

As for `Cc1cc(C(=O)N(C)C)cc(C)c1-c1cccc2c1CC[C@H]2Nc1cnc2c(c1)OCC2CC(=O)O` (stereo partly drawn) [Example 126, 2-(6-{[(1R)-4-[4-(Dimethylcarbamoyl)-2,6-dimethylphenyl]-2,3-dihydro-1H-inden-1-yl]amino}-2H,3H-furo[3,2-b]pyridin-3-yl)acetic acid], the solubility at 24 h in series [3] amounted to 79 µg/mL (≈ 163 µM). For the same compound, the figures for the IC50 in series [1] and in series [2] were over 50 µM and 37 µM, respectively. Moreover, at human GPR40 receptor, the response was half-maximal at 1.87 µM (EC50).

In series [3], `COc1cc(F)c(-c2cccc3c2CC[C@H]3Nc2cnc3c(c2)OCC3CC(=O)O)c(F)c1` (stereo partly drawn) [Example 127, 2-(6-{[(1R)-4-(2,6-Difluoro-4-methoxyphenyl)-2,3-dihydro-1H-inden-1-yl]amino}-2H,3H-furo[3,2-b]pyridin-3-yl)acetic acid] yielded a solubility at 24 h of 30 µg/mL (≈ 66.3 µM). The half-maximal inhibitory concentration (IC50) in series [1] was over 50 µM; in series [2], 27 µM. At human GPR40 receptor, this compound showed a half-maximal effective concentration (EC50) of 1.24 µM.
